According to patent US20080009418A1, “Selective Inhibitors” (Alchemia LTD., priority 2004, published 2008):

Legend:
Human κ-Opioid (KOP) = target: T1, Human κ-Opioid (KOP) (Homo sapiens, UniProt P41145); experiment: Radioligand binding, human κ-opioid (KOP) membranes, filtration, [3H]-Diprenorphine; conditions: compound at 10 μM; [3H]-Diprenorphine
T1 construct: purchased Perkin Elmer Biosignal
How it was run: (§1)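 Membranes from cloned human receptors were incubated with compound and radioligand for 1 hour at room temperature. Bound ligand was collected on 0.3% PEI-soaked filters, washed with cold 50 mM Tris-HCl pH 7.4, and counted by scintillation. Percent inhibition was computed against DMSO totals and reference-ligand nonspecific wells.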

Human μ-opioid (MOP) = target: T2, Human μ-opioid (MOP) (Homo sapiens, UniProt P35372); experiment: Radioligand binding, human μ-opioid (MOP) membranes, FlashPlate, [3H]-Naloxone; conditions: compound at 10 μM, [3H]-Naloxone
T2 construct: purchased Perkin Elmer Biosignal
How it was run: (§2)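 Cloned human receptor membranes were coated onto FlashPlate wells and incubated with radioligand and compound (added from a 0.5 mM DMSO daughter plate) for 1 hour at room temperature in the dark. Scintillation counting gave percent inhibition, with DMSO defining total and reference ligand defining non-specific binding.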

Human δ-opioid (DOP) = target: T3, Human δ-opioid (DOP) (Homo sapiens, UniProt P41143); experiment: Radioligand binding, human δ-opioid (DOP) membranes, FlashPlate, [3H]-Bremazocine; conditions: compound at 10 μM; [3H]-Bremazocine
T3 construct: purchased Perkin Elmer Biosignal
How it was run: as §2

Human melanocortin (MC5) = target: T4, Human melanocortin (MC5) (Homo sapiens, UniProt P33032); experiment: Radioligand binding, human melanocortin MC5 membranes, FlashPlate, [125I]-NDP-αMSH; conditions: compound at 10 μM, [125I]-NDP-αMSH
T4 construct: purchased Perkin Elmer Biosignal
How it was run: as §2

Human Melanocortin (MC4) = target: T5, Human Melanocortin (MC4) (Homo sapiens, UniProt P32245); experiment: Radioligand binding, human melanocortin MC4 membranes, FlashPlate, [125I]-NDP-αMSH; conditions: compound at 10 μM, [125I]-NDP-αMSH
T5 construct: purchased Perkin Elmer Biosignal
How it was run: as §2

Mouse urotensin (mUR2) = target: T6, Mouse urotensin (mUR2) (Mus musculus, UniProt Q8VIH9); experiment: Radioligand binding, mouse urotensin mUR2 membranes, FlashPlate, [125I]-Urotensin II; conditions: compound at 10 μM; [125I]-Urotensin II
T6 construct: purchased Perkin Elmer Biosignal
T6 sequence (Q8VIH9 1-385): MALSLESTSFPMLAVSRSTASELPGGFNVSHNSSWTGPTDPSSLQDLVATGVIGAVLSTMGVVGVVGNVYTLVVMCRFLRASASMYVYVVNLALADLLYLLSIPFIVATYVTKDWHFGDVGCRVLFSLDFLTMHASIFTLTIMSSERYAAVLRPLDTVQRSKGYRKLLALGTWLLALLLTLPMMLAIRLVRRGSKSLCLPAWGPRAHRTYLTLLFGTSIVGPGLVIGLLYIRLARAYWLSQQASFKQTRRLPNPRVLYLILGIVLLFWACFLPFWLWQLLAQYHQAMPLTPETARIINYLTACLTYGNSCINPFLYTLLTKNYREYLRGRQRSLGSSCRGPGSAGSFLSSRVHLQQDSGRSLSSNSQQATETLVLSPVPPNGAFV
How it was run: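 Cloned mouse urotensin (mUR2) receptor membranes from Perkin Elmer Biosignal were immobilized in FlashPlate microplates using a proprietary coating. Each well got 19.5 μl buffer, then 0.5 μl of DMSO, reference ligand, or compound. Adding 5 μl of [125I]-Urotensin II, diluted to 5× final concentration in binding buffer, started binding. Plates were sealed with TopSeal-A and incubated 1 hour at room temperature in the dark. Wells were counted for 30 seconds each on a TopCount after a 60-second delay, and percentage inhibition was calculated.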

Human Melanocortin (MC3) = target: T7, Human Melanocortin (MC3) (Homo sapiens, UniProt P41968); experiment: Radioligand binding, human melanocortin MC3 membranes, FlashPlate, [125I]-NDP-αMSH; conditions: compound at 10 μM, [125I]-NDP-αMSH
T7 construct: purchased Perkin Elmer Biosignal
How it was run: as §2

[1] = target: T8, Human neuropeptide Y (NPY-Y1) (Homo sapiens, UniProt P25929); experiment: Radioligand binding, human neuropeptide Y NPY-Y1 membranes, FlashPlate, [125I]-PYY; conditions: compound at 10 μM, [125I]-PYY
T8 construct: purchased Perkin Elmer Biosignal
T8 sequence (P25929 1-384): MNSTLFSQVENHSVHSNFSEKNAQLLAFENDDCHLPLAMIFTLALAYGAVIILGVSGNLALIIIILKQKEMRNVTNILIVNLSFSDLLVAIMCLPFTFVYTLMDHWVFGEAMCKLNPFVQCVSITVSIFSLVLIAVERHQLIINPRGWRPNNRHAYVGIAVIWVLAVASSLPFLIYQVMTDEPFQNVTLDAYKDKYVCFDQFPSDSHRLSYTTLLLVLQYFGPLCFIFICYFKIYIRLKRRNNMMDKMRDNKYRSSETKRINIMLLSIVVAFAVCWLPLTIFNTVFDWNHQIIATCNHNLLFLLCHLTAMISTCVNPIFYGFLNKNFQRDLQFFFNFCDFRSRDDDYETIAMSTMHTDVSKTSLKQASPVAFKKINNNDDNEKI
How it was run: as §2

Human opioid (ORL1) = target: T9, Human opioid (ORL1) (Homo sapiens, UniProt P41146); experiment: Radioligand binding, human opioid ORL1 membranes, FlashPlate, [125I]-Nociceptin; conditions: compound at 10 μM, [125I]-Nociceptin
T9 construct: purchased Perkin Elmer Biosignal
How it was run: as §2

[2] = target: T10, Human melanin-concentrating hormone (MCH1) (Homo sapiens, UniProt Q99705); experiment: Radioligand binding, human melanin-concentrating hormone MCH1 membranes, FlashPlate, [125I]-S36057; conditions: compound at 10 μM, [125I]-S36057
T10 construct: purchased Perkin Elmer Biosignal
How it was run: as §2

Human neurokinin (NK1) = target: T11, Human neurokinin (NK1) (Homo sapiens, UniProt P25103); experiment: Radioligand binding, human neurokinin NK1 membranes, filtration, [125I]-Substance P; conditions: compound at 10 μM; [125I]-Substance P
T11 construct: purchased Perkin Elmer Biosignal
How it was run: as §1

T5 sequence (P32245 whole entry): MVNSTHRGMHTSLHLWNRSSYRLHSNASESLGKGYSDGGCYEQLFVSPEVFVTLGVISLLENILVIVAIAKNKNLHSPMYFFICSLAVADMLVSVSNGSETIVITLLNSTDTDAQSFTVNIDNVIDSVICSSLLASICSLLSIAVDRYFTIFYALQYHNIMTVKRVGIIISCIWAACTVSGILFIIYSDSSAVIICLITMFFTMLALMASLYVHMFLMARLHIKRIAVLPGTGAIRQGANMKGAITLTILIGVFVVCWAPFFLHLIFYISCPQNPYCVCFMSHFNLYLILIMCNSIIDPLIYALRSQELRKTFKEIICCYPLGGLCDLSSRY
T9 sequence (P41146 whole entry): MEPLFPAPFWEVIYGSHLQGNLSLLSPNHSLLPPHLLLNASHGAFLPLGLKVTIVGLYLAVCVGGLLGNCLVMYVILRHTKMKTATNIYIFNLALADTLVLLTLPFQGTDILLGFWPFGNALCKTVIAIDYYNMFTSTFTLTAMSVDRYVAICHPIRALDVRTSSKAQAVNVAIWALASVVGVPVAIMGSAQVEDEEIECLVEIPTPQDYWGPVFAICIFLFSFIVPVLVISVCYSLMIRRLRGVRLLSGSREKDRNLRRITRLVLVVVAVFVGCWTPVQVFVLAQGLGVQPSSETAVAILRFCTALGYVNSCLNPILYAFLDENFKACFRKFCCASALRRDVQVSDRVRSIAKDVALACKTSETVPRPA
T2 sequence (P35372 whole entry): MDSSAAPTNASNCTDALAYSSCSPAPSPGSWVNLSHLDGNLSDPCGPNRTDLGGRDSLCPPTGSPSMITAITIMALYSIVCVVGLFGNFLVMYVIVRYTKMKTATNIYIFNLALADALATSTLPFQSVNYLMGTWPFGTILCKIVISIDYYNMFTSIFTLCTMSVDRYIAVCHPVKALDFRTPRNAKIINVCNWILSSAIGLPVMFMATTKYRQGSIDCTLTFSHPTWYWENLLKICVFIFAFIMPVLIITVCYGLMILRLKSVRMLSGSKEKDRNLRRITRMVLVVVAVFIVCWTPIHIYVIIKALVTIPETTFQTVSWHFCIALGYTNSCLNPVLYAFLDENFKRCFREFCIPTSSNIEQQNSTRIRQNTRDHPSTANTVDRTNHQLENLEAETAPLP
T4 sequence (P33032 whole entry): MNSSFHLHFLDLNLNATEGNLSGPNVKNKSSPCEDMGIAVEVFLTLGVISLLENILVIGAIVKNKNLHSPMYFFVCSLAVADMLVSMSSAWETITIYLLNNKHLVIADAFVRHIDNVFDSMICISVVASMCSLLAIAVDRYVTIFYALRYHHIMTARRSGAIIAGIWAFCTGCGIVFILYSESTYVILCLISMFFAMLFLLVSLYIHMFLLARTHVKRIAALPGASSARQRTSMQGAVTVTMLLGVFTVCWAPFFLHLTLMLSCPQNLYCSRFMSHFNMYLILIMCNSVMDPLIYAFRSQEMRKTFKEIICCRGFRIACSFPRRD
T3 sequence (P41143 whole entry): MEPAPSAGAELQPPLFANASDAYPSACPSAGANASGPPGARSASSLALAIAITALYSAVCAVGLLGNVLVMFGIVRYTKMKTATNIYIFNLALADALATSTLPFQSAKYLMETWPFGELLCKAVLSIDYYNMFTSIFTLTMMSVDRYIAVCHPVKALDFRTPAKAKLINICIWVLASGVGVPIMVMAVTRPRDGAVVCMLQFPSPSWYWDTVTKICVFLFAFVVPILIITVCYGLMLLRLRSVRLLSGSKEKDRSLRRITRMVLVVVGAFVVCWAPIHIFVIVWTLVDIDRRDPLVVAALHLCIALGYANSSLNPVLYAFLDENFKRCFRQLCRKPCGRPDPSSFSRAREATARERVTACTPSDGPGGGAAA
T7 sequence (P41968 whole entry): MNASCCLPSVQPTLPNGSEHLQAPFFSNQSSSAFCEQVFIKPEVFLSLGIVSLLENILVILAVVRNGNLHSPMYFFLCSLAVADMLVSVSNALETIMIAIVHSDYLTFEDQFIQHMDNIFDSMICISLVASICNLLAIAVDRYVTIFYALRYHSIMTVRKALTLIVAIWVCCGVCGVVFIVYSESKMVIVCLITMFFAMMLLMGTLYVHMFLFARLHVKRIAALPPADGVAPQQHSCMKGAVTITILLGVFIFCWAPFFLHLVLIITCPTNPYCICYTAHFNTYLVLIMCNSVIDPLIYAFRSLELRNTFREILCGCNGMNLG
T1 sequence (P41145 whole entry): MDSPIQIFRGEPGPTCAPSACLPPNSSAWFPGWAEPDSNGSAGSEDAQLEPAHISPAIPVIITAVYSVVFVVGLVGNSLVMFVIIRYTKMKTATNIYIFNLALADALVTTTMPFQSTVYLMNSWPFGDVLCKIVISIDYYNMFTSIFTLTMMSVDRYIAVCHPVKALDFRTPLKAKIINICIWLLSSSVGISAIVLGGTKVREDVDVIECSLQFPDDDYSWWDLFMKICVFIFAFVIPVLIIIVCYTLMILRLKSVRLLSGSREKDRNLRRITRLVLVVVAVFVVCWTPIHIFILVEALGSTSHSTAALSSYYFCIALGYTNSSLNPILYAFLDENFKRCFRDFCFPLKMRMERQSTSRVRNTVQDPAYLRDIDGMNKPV
T11 sequence (P25103 whole entry): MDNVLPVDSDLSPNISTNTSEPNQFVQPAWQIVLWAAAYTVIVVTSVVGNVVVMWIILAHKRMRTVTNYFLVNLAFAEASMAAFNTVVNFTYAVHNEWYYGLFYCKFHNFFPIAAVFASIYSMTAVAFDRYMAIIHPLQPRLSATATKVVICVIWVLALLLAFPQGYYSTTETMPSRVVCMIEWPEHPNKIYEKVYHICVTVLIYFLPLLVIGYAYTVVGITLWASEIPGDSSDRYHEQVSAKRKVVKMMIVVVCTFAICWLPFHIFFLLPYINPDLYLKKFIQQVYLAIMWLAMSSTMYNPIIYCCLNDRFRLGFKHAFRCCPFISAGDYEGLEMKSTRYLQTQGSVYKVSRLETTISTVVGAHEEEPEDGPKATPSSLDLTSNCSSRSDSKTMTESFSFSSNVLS
T10 sequence (Q99705 whole entry): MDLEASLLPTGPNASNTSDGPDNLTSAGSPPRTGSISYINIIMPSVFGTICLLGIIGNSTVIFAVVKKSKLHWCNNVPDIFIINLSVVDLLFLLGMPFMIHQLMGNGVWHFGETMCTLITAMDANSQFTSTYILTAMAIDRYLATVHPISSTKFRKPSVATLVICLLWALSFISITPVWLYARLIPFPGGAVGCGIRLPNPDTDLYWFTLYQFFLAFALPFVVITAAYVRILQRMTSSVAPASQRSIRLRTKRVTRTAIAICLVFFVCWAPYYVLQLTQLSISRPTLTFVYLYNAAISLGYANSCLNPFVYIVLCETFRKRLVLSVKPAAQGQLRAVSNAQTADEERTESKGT

Row | Compound | A2: inhibition of radioligand binding, human κ-opioid (KOP) (Human κ-Opioid (KOP)) | A7: inhibition of radioligand binding, human μ-opioid (MOP) (Human μ-opioid (MOP)) | A1: inhibition of radioligand binding, human δ-opioid (DOP) (Human δ-opioid (DOP)) | A5: inhibition of radioligand binding, human melanocortin (MC5) (Human melanocortin (MC5); 10 µM) | A4: inhibition of radioligand binding, human melanocortin (MC4) (Human Melanocortin (MC4); 10 µM) | A11: inhibition of radioligand binding, mouse urotensin (mUR2) (Mouse urotensin (mUR2)) | A3: inhibition of radioligand binding, human melanocortin (MC3) (Human Melanocortin (MC3); 10 µM) | A9: inhibition of radioligand binding, human neuropeptide Y (NPY-Y1) [1] | A10: inhibition of radioligand binding, human opioid (ORL1) (Human opioid (ORL1)) | A6: inhibition of radioligand binding, human melanin-concentrating hormone (MCH1) ([2]; 10 µM) | A8: inhibition of radioligand binding, human neurokinin (NK1) (Human neurokinin (NK1)) | A5: inhibition of radioligand binding, human melanocortin (MC5) (Human melanocortin (MC5)) | A4: inhibition of radioligand binding, human melanocortin (MC4) (Human Melanocortin (MC4)) | A3: inhibition of radioligand binding, human melanocortin (MC3) (Human Melanocortin (MC3)) | A10: inhibition of radioligand binding, human opioid (ORL1) (Human opioid (ORL1); 10 µM) | A6: inhibition of radioligand binding, human melanin-concentrating hormone (MCH1) [2] | A7: inhibition of radioligand binding, human μ-opioid (MOP) (Human μ-opioid (MOP); 10 µM) | A9: inhibition of radioligand binding, human neuropeptide Y (NPY-Y1) ([1]; 10 µM)
1 | N=C(N)NCC(=O)N[C@H]1C(OCc2ccc(Cl)cc2)O[C@H](COCc2ccccc2)[C@@H](O)[C@@H]1OCc1ccc(-c2ccccc2)cc1 (stereo partly shown) [compound 519] | − (“−” indicates less than 50% inhibition at 10 μM) | − (“−” indicates less than 50% inhibition at 10 μM) | − (“−” indicates less than 50% inhibition at 10 μM) | + (“+” indicates greater than 50% inhibition at 10 μM) | + (“+” indicates greater than 50% inhibition at 10 μM) | − (“−” indicates less than 50% inhibition at 10 μM) | + (“+” indicates greater than 50% inhibition at 10 μM) | − (“−” indicates less than 50% inhibition at 10 μM) | − (“−” indicates less than 50% inhibition at 10 μM) | + (“+” indicates greater than 50% inhibition at 10 μM) | + (“+” indicates greater than 50% inhibition at 10 μM) | – | – | – | – | – | – | –
2 | N=C(N)NCC(=O)N[C@H]1C(OCc2ccc(Cl)cc2)O[C@H](COCc2ccc(Cl)cc2)[C@@H](O)[C@@H]1OCc1ccc(-c2ccccc2)cc1 (stereo partly shown) [compound 520] | − (“−” indicates less than 50% inhibition at 10 μM) | − (“−” indicates less than 50% inhibition at 10 μM) | − (“−” indicates less than 50% inhibition at 10 μM) | – | – | − (“−” indicates less than 50% inhibition at 10 μM) | – | − (“−” indicates less than 50% inhibition at 10 μM) | – | – | + (“+” indicates greater than 50% inhibition at 10 μM) | + (“+” indicates greater than 50% inhibition at 10 μM) | + (“+” indicates greater than 50% inhibition at 10 μM) | + (“+” indicates greater than 50% inhibition at 10 μM) | − (“−” indicates less than 50% inhibition at 10 μM) | + (“+” indicates greater than 50% inhibition at 10 μM) | – | –
3 | N=C(N)NCC(=O)N[C@H]1C(OCc2ccc(Cl)cc2)O[C@H](COCc2ccc(Cl)cc2)[C@@H](O)[C@@H]1OCc1ccc(-c2ccccc2)cc1 (stereo partly shown) [compound 521] | − (“−” indicates less than 50% inhibition at 10 μM) | − (“−” indicates less than 50% inhibition at 10 μM) | − (“−” indicates less than 50% inhibition at 10 μM) | – | – | − (“−” indicates less than 50% inhibition at 10 μM) | – | − (“−” indicates less than 50% inhibition at 10 μM) | – | – | + (“+” indicates greater than 50% inhibition at 10 μM) | + (“+” indicates greater than 50% inhibition at 10 μM) | + (“+” indicates greater than 50% inhibition at 10 μM) | + (“+” indicates greater than 50% inhibition at 10 μM) | + (“+” indicates greater than 50% inhibition at 10 μM) | + (“+” indicates greater than 50% inhibition at 10 μM) | – | –
4 | N=C(N)NCCC(=O)N[C@H]1C(OCc2ccc(Cl)cc2)O[C@H](COCc2ccc3ccccc3c2)[C@@H](O)[C@@H]1OCc1ccc(Cl)cc1 (stereo partly shown) [compound 522] | + (“+” indicates greater than 50% inhibition at 10 μM) | – | − (“−” indicates less than 50% inhibition at 10 μM) | – | – | − (“−” indicates less than 50% inhibition at 10 μM) | – | – | + (“+” indicates greater than 50% inhibition at 10 μM) | – | + (“+” indicates greater than 50% inhibition at 10 μM) | + (“+” indicates greater than 50% inhibition at 10 μM) | + (“+” indicates greater than 50% inhibition at 10 μM) | + (“+” indicates greater than 50% inhibition at 10 μM) | – | + (“+” indicates greater than 50% inhibition at 10 μM) | − (“−” indicates less than 50% inhibition at 10 μM) | + (“+” indicates greater than 50% inhibition at 10 μM)
5 | N=C(N)NCCC(=O)N[C@H]1C(OCc2ccc(Cl)cc2)O[C@H](COCc2ccc3ccccc3c2)[C@@H](O)[C@@H]1OCc1ccc(Cl)cc1 (stereo partly shown) [compound 523] | + (“+” indicates greater than 50% inhibition at 10 μM) | – | − (“−” indicates less than 50% inhibition at 10 μM) | – | – | − (“−” indicates less than 50% inhibition at 10 μM) | – | – | + (“+” indicates greater than 50% inhibition at 10 μM) | – | + (“+” indicates greater than 50% inhibition at 10 μM) | + (“+” indicates greater than 50% inhibition at 10 μM) | + (“+” indicates greater than 50% inhibition at 10 μM) | + (“+” indicates greater than 50% inhibition at 10 μM) | – | + (“+” indicates greater than 50% inhibition at 10 μM) | + (“+” indicates greater than 50% inhibition at 10 μM) | − (“−” indicates less than 50% inhibition at 10 μM)
